Laboratory results reported in ChEMBL document CHEMBL5335808, “Design, synthesis of new 3H-imidazo[4,5-b]pyridine derivatives and evaluation of their inhibitory properties as mixed lineage kinase 3 inhibitors” (Bioorg Med Chem Lett, 2024).

Key:
[1] = Lipophilicity, LogP of the compound; type: physicochemical; settings: octanol/water
[2] = Permeability of the compound by PAMPA method; type: ADME; settings: read-out: Peff
[3] = biological target: T1, Mitogen-activated protein kinase kinase kinase 11 (Homo sapiens, UniProt Q16584); assay: Inhibition of human MLK3 by ATP-competitive binding assay
Target sequence in this assay (Q16584 whole entry): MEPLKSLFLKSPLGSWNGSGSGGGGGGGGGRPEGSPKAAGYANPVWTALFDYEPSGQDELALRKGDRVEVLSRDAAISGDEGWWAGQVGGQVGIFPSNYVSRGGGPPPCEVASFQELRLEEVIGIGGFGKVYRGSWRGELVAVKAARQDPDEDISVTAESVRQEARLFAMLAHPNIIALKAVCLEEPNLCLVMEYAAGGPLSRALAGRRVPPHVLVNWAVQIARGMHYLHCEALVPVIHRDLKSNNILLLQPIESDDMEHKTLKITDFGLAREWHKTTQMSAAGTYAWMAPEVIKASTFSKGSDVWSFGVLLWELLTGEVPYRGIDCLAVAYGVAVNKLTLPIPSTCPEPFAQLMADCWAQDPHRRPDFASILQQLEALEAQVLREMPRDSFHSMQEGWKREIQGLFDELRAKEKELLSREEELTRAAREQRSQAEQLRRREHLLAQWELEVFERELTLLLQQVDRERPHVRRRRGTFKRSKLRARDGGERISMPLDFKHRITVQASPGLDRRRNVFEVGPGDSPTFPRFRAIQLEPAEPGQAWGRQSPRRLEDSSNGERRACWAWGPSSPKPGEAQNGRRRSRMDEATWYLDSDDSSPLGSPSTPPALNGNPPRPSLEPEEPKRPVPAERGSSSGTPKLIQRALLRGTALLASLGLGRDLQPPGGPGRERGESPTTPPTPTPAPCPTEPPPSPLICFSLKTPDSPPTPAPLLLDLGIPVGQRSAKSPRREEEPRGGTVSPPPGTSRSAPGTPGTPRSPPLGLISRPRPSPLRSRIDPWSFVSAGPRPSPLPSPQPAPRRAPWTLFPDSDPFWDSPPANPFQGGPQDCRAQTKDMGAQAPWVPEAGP

[4] = biological target: T1, Mitogen-activated protein kinase kinase kinase 11; assay: Inhibition of human MLK3 at 0.5 uM by ATP-competitive binding assay relative to control
Target sequence in this assay (Q16584 whole entry, looked up): as the sequence (Q16584 whole entry) above

| Structure (SMILES) | logP [1] | Papp [2] | IC50 [3] | inhibition [4] |
| --- | --- | --- | --- | --- |
| CCS(=O)(=O)N1CC[C@H](Nc2c(Br)cnc3[nH]c(-c4cc(C)n(-c5ccc(NC(=O)CN(C)C)cc5C)c4C)nc23)C1 | 4.53 | 48.7 ×10⁻⁶ cm/s |  |  |
| CCS(=O)(=O)N1CC[C@H](Nc2c(Br)cnc3[nH]c(-c4cc(C)n(-c5cc(C(=O)N6CCN(C)CC6)ccc5C)c4C)nc23)C1 | 5.06 | 35.7 ×10⁻⁶ cm/s |  |  |
| CCS(=O)(=O)N1CC[C@H](Nc2c(Br)cnc3nc(-c4cc(C)n(-c5cccc(NC(=O)CN(C)C)c5C)c4C)[nH]c23)C1 | 5.17 | 55.9 ×10⁻⁶ cm/s |  |  |
| CCS(=O)(=O)N1CC[C@H](Nc2c(Br)cnc3[nH]c(-c4cc(C)n(-c5cccc(C(=O)NCCN(C)C)c5)c4C)nc23)C1 | 4.81 | 3.42 ×10⁻⁶ cm/s | 27 nM |  |
| CCS(=O)(=O)N1CC[C@H](Nc2c(Br)cnc3[nH]c(-c4cc(C)n(-c5ccc(C(=O)N(C)CCN(C)C)cc5)c4C)nc23)C1 | 3.52 | 8.91 ×10⁻⁶ cm/s |  |  |
| CCS(=O)(=O)N1CC[C@H](Nc2c(Br)cnc3[nH]c(-c4cc(C)n(-c5ccc(C(=O)N6CCOCC6)cc5)c4C)nc23)C1 | 3.92 | 13.1 ×10⁻⁶ cm/s | 6 nM |  |
| CCS(=O)(=O)N1CC[C@H](Nc2c(Br)cnc3nc(-c4cc(C)n(-c5cccc(C(=O)NCCN(C)C)c5C)c4C)[nH]c23)C1 | 4.86 | 21.2 ×10⁻⁶ cm/s |  |  |
| CCS(=O)(=O)N1CC[C@H](Nc2c(Br)cnc3[nH]c(-c4cc(C)n(-c5cc(NC(=O)CN6CCN(C)CC6)ccc5C)c4C)nc23)C1 | 5.89 |  |  |  |
| CC(C)c1nn(C)cc1-c1nc2cc(Br)cnc2[nH]1 |  |  |  | 21% |
| CCS(=O)(=O)N1CC[C@H](Nc2c(Br)cnc3[nH]c(-c4cc(C)n(-c5ccc(C(=O)N6CCN(C)CC6)cc5C)c4C)nc23)C1 | 5.16 | 13.9 ×10⁻⁶ cm/s | 25 nM |  |
| CCS(=O)(=O)N1CC[C@H](Nc2c(Br)cnc3nc(-c4cc(C)n(-c5cccc(NC(=O)CN6CCOCC6)c5C)c4C)[nH]c23)C1 | 4.28 | 47.8 ×10⁻⁶ cm/s |  |  |
| CCS(=O)(=O)N1CC[C@H](Nc2c(Br)cnc3[nH]c(-c4cc(C)n(-c5ccc(C(=O)NCCN(C)C)cc5)c4C)nc23)C1 | 3.86 | 2.53 ×10⁻⁶ cm/s |  |  |
| O=C1Nc2ccc3ncsc3c2/C1=C/c1c[nH]cn1 |  |  | 144 nM |  |
| CCS(=O)(=O)N1CC[C@H](Nc2c(Br)cnc3[nH]c(-c4cc(C)n(-c5cccc(C(=O)N6CCOCC6)c5)c4C)nc23)C1 | 3.69 | 15.2 ×10⁻⁶ cm/s | 6 nM |  |
